Data taken from patent US5888763A, “Peptides specific for the first Crk-SH3 domain” (The Rockefeller University, priority 1994, dated 1999).
Where two headings read alike, the source gives them in different places. Where a SMILES comes first, the peptide text is derived from it. Where no end group is shown, it is not given here.

Legend:
v-Crk = target: T1, v-Crk (Avian sarcoma virus CT10, UniProt P05433); experiment: Tryptophan fluorescence titration of peptides with gst-v-Crk; format: binding; settings: Table 3; fluorescence measurements
T1 construct: made in house; host or cells: bacteria
T1 sequence (P05433 whole entry): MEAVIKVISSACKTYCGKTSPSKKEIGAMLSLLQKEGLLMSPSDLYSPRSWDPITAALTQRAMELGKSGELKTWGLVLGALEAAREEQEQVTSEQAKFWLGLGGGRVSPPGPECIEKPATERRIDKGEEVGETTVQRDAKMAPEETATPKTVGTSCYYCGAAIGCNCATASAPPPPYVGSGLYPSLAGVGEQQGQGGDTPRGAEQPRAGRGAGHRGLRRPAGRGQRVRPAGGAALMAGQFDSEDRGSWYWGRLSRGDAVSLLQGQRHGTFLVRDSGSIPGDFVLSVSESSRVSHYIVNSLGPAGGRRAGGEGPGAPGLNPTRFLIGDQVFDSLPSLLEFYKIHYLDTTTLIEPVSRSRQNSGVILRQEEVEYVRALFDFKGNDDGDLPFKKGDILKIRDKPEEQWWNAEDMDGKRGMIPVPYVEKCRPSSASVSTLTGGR
From the text: (§1) Fluorescence Measurements. The fluorescence measurements were based predominantly on the interactions of the peptides with the aromatic residues, predominantly Trp (Yu et al., 1994, Cell 76:933) in the CrkSH3 domain.
(§2) Measurements were made with a Perkin-Elmer 760-40 fluorescence spectrophotometer at a excitation wavelength of 290 nm (slitwidth 2 nm) and an emission wavelength of 345 nm (slitwidth 17 nm). A mini-magnetic stirrer, CUV-O-STIR model 333 (HELLMA, Long Island, N.Y.) was used to mix the solution in a 1 cm square quartz fluorescence cell. A circulating water bath was used to maintain the sample temperature at 18° C. To obtain the titration curves for calculations of the binding constants, peptides from a stock solution of 5 mg/ml in TBS, 0.05% Tween-20 were added in small increments to a 1 ml volume of 0.5 μM SH3 domain in PBS, 1 mM Dithiothreitol (DTT).
(§3) Calculation of the binding constant. Since the concentration of the SH3-domain containing protein was low, the experimental data were fitted to the following equation:
(§4) F=Fmax *[peptide]/(Kd +[peptide]) (1)
(§5) Non-linear regression curve fitting using SigmaPlot (Jandel Scientific, San Rafael, Calif.) was carried out to fit the experimental data to equation (1) with Fmax and Kd as fitted parameters.

c-CrkSH3(1) = target: T2, c-CrkSH3(1) (Mus musculus, UniProt Q64010); experiment: Tryptophan fluorescence titration of peptides with gst-c-CrkSH3(1); format: binding, murine; settings: fluorescence measurements
T2 construct: made in house; host or cells: bacteria
From the text: as §1, §2, §3, §4, §5

Grb2 SH3 domain = target: T3, Grb2 SH3 domain (Homo sapiens, UniProt P62993); experiment: Tryptophan fluorescence titration of peptides with gst-Grb2; format: binding
T3 construct: made in house; host or cells: bacteria
T3 sequence (P62993 whole entry, the tested form may be a part): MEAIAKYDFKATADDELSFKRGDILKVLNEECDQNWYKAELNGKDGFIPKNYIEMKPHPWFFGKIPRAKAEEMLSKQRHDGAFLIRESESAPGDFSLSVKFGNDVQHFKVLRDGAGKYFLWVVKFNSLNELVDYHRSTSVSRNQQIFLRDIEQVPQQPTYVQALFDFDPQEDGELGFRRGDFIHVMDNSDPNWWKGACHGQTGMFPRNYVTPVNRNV

CRKL = target: T4, CRKL (Homo sapiens, UniProt P46109); experiment: Tryptophan fluorescence titration of peptides with gst-CRKL; format: binding; settings: Table 3; fluorescence measurements
T4 construct: made in house; host or cells: bacteria
T4 sequence (P46109 whole entry, species assumed): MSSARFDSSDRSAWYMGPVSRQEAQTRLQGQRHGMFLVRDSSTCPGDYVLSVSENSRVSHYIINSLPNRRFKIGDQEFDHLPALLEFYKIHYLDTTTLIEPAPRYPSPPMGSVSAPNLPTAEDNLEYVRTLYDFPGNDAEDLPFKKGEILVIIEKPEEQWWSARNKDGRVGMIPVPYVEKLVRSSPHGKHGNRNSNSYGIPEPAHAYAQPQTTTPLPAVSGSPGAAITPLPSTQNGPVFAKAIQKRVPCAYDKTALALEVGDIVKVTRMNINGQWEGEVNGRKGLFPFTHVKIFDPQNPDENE
From the text: as §1, §2, §3, §4, §5

gst-CrkSH3SH3 = experiment: ELISA: biotinylated gst-CB fusion proteins binding to immobilized gst-CrkSH3SH3; settings: wells coated with 100 ng/well gst-CrkSH3SH3, biotinylated gst-CB fusion protein, read-out: apparent Kd (half saturation point)
Chain of gst-CrkSH3SH3 (Q64010 132-296 limits assumed): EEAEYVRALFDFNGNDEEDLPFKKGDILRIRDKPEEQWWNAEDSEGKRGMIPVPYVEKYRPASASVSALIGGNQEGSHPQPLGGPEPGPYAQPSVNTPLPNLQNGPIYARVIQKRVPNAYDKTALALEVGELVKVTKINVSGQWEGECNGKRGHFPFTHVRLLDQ
Description: ELISA. gst-CB-1 to -4 proteins were biotinylated with Sulfosuccinimidyl 6-(biotinamido) hexanoate (Pierce) according to the manufacturers instructions. ELISA plates (Nunc) were coated with 100 ng/well of gst-Grb2, gst-CrkSH3SH3 or gst in 0.1M NaHCO3, pH 9.6, over night at room temperature (Jones et al., 1991, Mol. Cell Biol. 11:2641). Wells were then blocked with 2% BSA. After washing three times with blocking buffer (20 mM Tris-HCl, pH 7.5, 100 mM NaCl, 0.05% Tween-20, 1 mM EDTA, 0.2% BSA and 0.1% Ovalbumin), biotinylated gst-CB fusion proteins were added at the concentrations indicated in FIG. 6. To measure bound gst-CB fusion proteins, wells were incubated with horseradish Peroxidase coupled streptavidin (Gibco). A chromogenic substrate, 2,2'-azinobis(3-ethylbenzothiazoline-6-sulfonic acid) diaminonium salt (ABTS, Pierce) was then added and the OD was measured at 405 nm after 5 and 15 min and the 5 min OD value subtracted from the 15 min OD value to yield DOD405. In each experiment, the DOD405 at saturation of SH3 domain binding sites was considered 100% . DOD405 values for all other points within the same experiment were expressed as a percentage of this 100% value. Binding to gst alone was subtracted at each data point.

[1] = target: T5, gst-c-CrkSH3(1) (Example 2) (murine, UniProt Q64010); experiment: tryptophan fluorescence titration
[2] = target: T5, gst-c-CrkSH3(1) (Example 2); experiment: tryptophan fluorescence titration; remark: listed apart in the source
gst-v-Crk = gst-v-Crk (Avian sarcoma virus CT10 (Avian sarcoma …, UniProt P05433)); experiment: tryptophan fluorescence titration
[3] = target: T5, gst-c-CrkSH3(1) (Example 2); experiment: rounded value given in the summary of Example 3 for the peptide and Crk SH3-N; measured by fluorescence in Example 2
[4] = target: T5, gst-c-CrkSH3(1) (Example 2); experiment: filter binding of 35S-gst-CrkSH3(1) to blotted gst-fusion peptides
[5] = target: T5, gst-c-CrkSH3(1) (Example 2); experiment: tryptophan fluorescence titration with gst-CrkSH3(1)
[6] = target: T5, gst-c-CrkSH3(1) (Example 2); experiment: tryptophan fluorescence titration; remark: listed apart in the source
[7] = c-CrkSH3(1) Kd (μM), Table 2, gst-CrkSH3(1), 18° C
[8] = Table 2, gst-Grb2, fluorescence measurements, 18° C, read-out: Grb2SHD Kd

For CC(C)C[C@H](NC(=O)[C@H](C)NC(=O)[C@@H]1CCCN1C(=O)[C@@H]1CCCN1C(=O)[C@@H]1CCCN1)C(=O)N1CCC[C@H]1C(=O)N1CCC[C@H]1C(=O)N[C@@H](C)C(=O)N[C@@H](CCCCN)C(=O)N[C@@H](CCCNC(=N)N)C(=O)O (H-PPPALPPAKR-OH), the Kd (v-Crk) was 248 ± 10 µM.

Work on CC(C)C[C@H](NC(=O)[C@@H]1CCCN1C(=O)[C@@H]1CCCN1C(=O)[C@H](CC(C)C)NC(=O)[C@H](C)NC(=O)[C@@H]1CCCN1C(=O)[C@@H]1CCCN1C(=O)[C@@H]1CCCN1)C(=O)N[C@@H](CCCCN)C(=O)N[C@@H](CCCNC(=N)N)C(=O)O (H-PPPALPPLKR-OH) yielded a Kd (c-CrkSH3(1); gst-c-CrkSH3(1) Kd (μM), Table 3) of 379 ± 1 µM and a Kd (v-Crk) of 437 ± 6 µM.

With CC(C)C[C@H](NC(=O)[C@@H]1CCCN1C(=O)[C@@H]1CCCN1C(=O)[C@@H]1CCCN1C(=O)[C@@H]1CCCN1)C(=O)N1CCC[C@H]1C(=O)N1CCC[C@H]1C(=O)N[C@@H](CCCCN)C(=O)N[C@@H](CCCCN)C(=O)N[C@@H](CCCNC(=N)N)C(=O)O [C3Gmut(1)] (H-PPPPLPPKKR-OH) the Kd (Grb2 SH3 domain) was 203 ± 3 µM.

For CC(C)C[C@H](NC(=O)[C@H](C)NC(=O)[C@@H]1CCCN1C(=O)[C@@H]1CCCN1C(=O)[C@@H]1CCCN1)C(=O)N1CCC[C@H]1C(=O)N1CCC[C@H]1C(=O)N[C@@H](CCCNC(=N)N)C(=O)N[C@@H](CCCCN)C(=O)N[C@@H](CCCNC(=N)N)C(=O)O [C3Gmut(2)] (H-PPPALPPRKR-OH), the Kd (c-CrkSH3(1); [7]) was 17.2 ± 0.4 µM, the Kd (Grb2 SH3 domain) was 23.5 ± 0.8 µM and the Kd (CRKL) was 11.2 ± 0.5 µM.

With CC(C)C[C@H](NC(=O)[C@H](C)NC(=O)[C@@H]1CCCN1C(=O)[C@@H]1CCCN1C(=O)[C@@H]1CCCN1)C(=O)N1CCC[C@H]1C(=O)N1CCC[C@H]1C(=O)N[C@@H](CCCCN)C(=O)N[C@@H](CCCCN)C(=O)N[C@@H](CCCNC(=N)N)C(=O)O [CB-1 peptide] the Kd (c-CrkSH3(1); Kd for the CrkSH3(1) domain) was 1.89 ± 0.06 µM, the Kd (Grb2 SH3 domain) was 142 ± 3 µM and the Kd (CRKL) was 2.79 ± 0.1 µM.

Molecule CC(C)[C@H](NC(=O)[C@@H]1CCCN1C(=O)[C@@H]1CCCN1C(=O)[C@@H]1CCCN1)C(=O)N1CCC[C@H]1C(=O)N1CCC[C@H]1C(=O)N[C@@H](CCCNC(=N)N)C(=O)N[C@@H](CCCNC(=N)N)C(=O)N[C@@H](CCCNC(=N)N)C(=O)N[C@@H](CCCNC(=N)N)C(=O)O [SOS-1, reference compound] has a Kd (c-CrkSH3(1); [7]) of 5.24 ± 0.16 µM, a Kd (Grb2 SH3 domain) of 3.54 ± 0.16 µM and a Kd (CRKL) of 10.5 ± 0.8 µM.

Molecule CC[C@H](C)[C@H](NC(=O)[C@H](C)NC(=O)[C@@H]1CCCN1C(=O)[C@@H]1CCCN1)C(=O)N1CCC[C@H]1C(=O)N1CCC[C@H]1C(=O)N[C@@H](CCCNC(=N)N)C(=O)N[C@@H](CCC(N)=O)C(=O)N1CCC[C@H]1C(=O)N[C@H](C(=O)O)[C@@H](C)O [SOS-2] (H-PPAIPPRQPT-OH) has a Kd (Grb2 SH3 domain; [8]) of 42 ± 4 µM.

CC(C)C[C@H](NC(=O)[C@@H]1CCCN1C(=O)[C@@H]1CCCN1)C(=O)N[C@@H](CC(C)C)C(=O)N1CCC[C@H]1C(=O)N1CCC[C@H]1C(=O)N[C@@H](CCCNC(=N)N)C(=O)N[C@@H](CCC(=O)O)C(=O)N1CCC[C@H]1C(=O)N[C@H](C(=O)O)C(C)C [SOS-3, reference compound] (H-PPLLPPREPV-OH) gave a Kd (c-CrkSH3(1); [7]) of 206 ± 9 µM and a Kd (Grb2 SH3 domain) of 88 ± 3 µM.

CC(C)[C@H](NC(=O)[C@@H]1CCCN1C(=O)[C@@H]1CCCN1C(=O)CN)C(=O)N1CCC[C@H]1C(=O)N1CCC[C@H]1C(=O)N[C@@H](CCCNC(=N)N)C(=O)N[C@@H](CCC(N)=O)C(=O)N[C@@H](CO)C(=O)N[C@H](C(=O)O)[C@@H](C)O [SOS-4, reference compound] (H-GPPVPPRQST-OH) was tested, and the Kd (c-CrkSH3(1); Table 2, gst-CrkSH3(1), 18° C, read-out: c-CrkSH3(1) Kd) was 663 ± 3 µM and the Kd (Grb2 SH3 domain; [8]) was 94 ± 5 µM.

With “gst-CB-1: gst-fusion protein containing only the single proline-rich sequence CB-1 of C3G (SPPPALPPKKRQ; also: fused to GST)” the Kd (gst-CrkSH3SH3) was 0.0104 µM.

For “gst-CB-2: gst-fusion protein containing only the single proline-rich sequence CB-2 of C3G (DTPPALPEKKRR; also: fused to GST)”, the Kd (gst-CrkSH3SH3) was 0.027 µM.

Molecule “gst-CB-3: gst-fusion protein containing only the single proline-rich sequence CB-3 of C3G (EKPPPLPEKKNK; also: fused to GST)” has a Kd (gst-CrkSH3SH3) of 0.0113 µM.

For “gst-CB-4: gst-fusion protein containing only the single proline-rich sequence CB-4 of C3G (APPPALPPKQRQ; also: fused to GST)”, the Kd (gst-CrkSH3SH3) was 0.00285 µM.

PPPALPPAKR [Lys-10Ala mutant peptide (PPPALPPAKR)] was tested, and the “fold decrease of binding against the wild type CB-1 peptide” value [1] was 10 fold, the “fold increase of Kd against the wild type CB-1 peptide” value [1] was 11.7 fold and the “fold reduction of binding affinity against the wild type CB-1 peptide” value [1] was 11.6 fold. For the same molecule, the Kd [2] was 22.1 µM.

PPPALPPKKR [CB-1 peptide (PPPALPPKKR)] showed a Kd (gst-v-Crk) of 25.5 µM and a Kd [3] of ~2 µM.

PPPALPPKK (other) [gst-3-11 (CB-1 gst-fusion peptide without the C-terminal Arg-12)]: no binding [4].

TPPALPEKKR [CB-2 peptide]: binds [5].

KPPPLPEKKQ [CB-3 peptide]: binds [5].

PPPALPPKQR [CB-4 peptide]: binds [5].

NSPPPALPPKKR (other, not fully specified) [gst-1-12 (GST-NSPPPALPPKKR)]: binds [4].

PPAIPPRQPT [SOS-2 peptide (PPAIPPRQPT)] gave a Kd [6] of 127 µM.

Molecule PPPPLPPKKR [C3Gmut(1) peptide (PPPPLPPKKR)] has a Kd [6] of 1.45 µM.

In the case of PPPALPPRKR [C3Gmut(2) peptide (PPPALPPRKR)], the “fold decrease of binding against the wild type CB-1 peptide” value [1] is reported as 10 fold, the “fold increase of Kd against the wild type CB-1 peptide” value [1] is reported as ~9 fold and the Kd (gst-v-Crk) is reported as 23.5 µM.

PPPALPPKAR [peptide PPPALPPKAR] gave a Kd [2] of 5.74 µM.

PPPALPPKKA [peptide PPPALPPKKA] was tested, and the Kd [2] was 9.3 µM and the Kd (gst-v-Crk) was 71.8 µM.

PPPALPPKKK [peptide PPPALPPKKK] was tested, and the Kd [2] was 5 µM and the Kd (gst-v-Crk) was 36.2 µM.

For PPPVPPRRRR [SOS-1 peptide (PPPVPPRRRR)], the Kd (gst-v-Crk) was 23.7 µM.
